Measurements taken from patent US6310247A, “7-aryl-6(Z)-heptatrienoic acid retinamides” (Hoffmann-LA Roche Inc., priority 1999, dated 2001).
“Also recorded” adds a separate entry of the source. Like-named read-outs stand apart in the source and are kept apart here.

Columns and labels:
tumors = details: cited from earlier work
tumor cells = details: cited from earlier work; for Differentiation of certain tumor cells (in words): in vitro
[1] = system: ER+ and ER- breast carcinoma cells; details: cited from earlier work
[2] = cited from earlier work
human carcinoma cells = details: in vitro; cited from earlier work
ZR-75-1 cells = experiment: Apoptosis: cell death detection by ELISA, ZR-75-1; assay type: cell-based, human; details: for fold induction at 10 µM / fold induction at 1 µM / fold induction at 3.3 µM: Homo sapiens
Description: ER+ breast carcinoma, human (ZR-75-1) obtained from ATCC (CRL 1500), were grown in Gibco's RPMI 1640 media supplemented with sodium pyruvate, 10% FBS and 13 ng/mL gentamicin. Cells were incubated at 37° C., 4.5% CO2 and 95.5% humidified air.
(§1) 2. Apoptosis: Cell death detection by ELISA:
(§2) Compounds of formula 1 were tested for the ability to cause apoptosis as follows:
(§3) Cells and media were collected, cells were pelleted, resuspended in 100 μl lysis buffer (50 mM Tris-Cl (pH=8.0), 20 mM EDTA, 1% NP-40e) and incubated 30 minutes at 4° C. to lyse. Cell debris was spun down and an aliquot (30 μl) of the […] was removed for protein determination and stored at -20° C. An additional 280 μl of lysis buffer, was added, mixed thoroughly and spun down at 14,000 RPM for 10 minutes at 4° C. An aliquot was removed (180 μl) and the sample was stored at -20° C. until testing.
(§4) A commercially available apoptosis detection kit, obtained from Boehringer Mannheim (Cat. No. 1544-674), was used as per the directions provided with the kit (Cell Death Detection ELISA). However, the protocol was modified in that a 1:40 to 1:100 dilution of sample was prepared, rather than the recommended 1:10 dilution, due to the increase in cell number used to prepare the sample extract and the subsequent increase in ELISA reactivity. The assay measures apoptosis by quantifying the amount of nucleosomal fragmentation from the extracts of cells treated with the test compounds (samples). These nucleosomal fragments, generated by the activation of endonucleases, are a known downstream effector of apoptosis. Antihistone antibodies are used to fix any nucleosomal fragments in the sample to the well of the microtiter plates. The sample is then incubated with anti-DNA antibodies conjugated to peroxidase and subsequently incubated with the peroxidase substrate, ABTS. The resulting colorimetric change is measured spectrophotometrically at 405/490nm.
(§5) The total protein content of each sample was determined for the purpose of normalizing the ELISA values to amount of sample loaded. Microplate assay protocol described in the instruction manual, for (Biorad DC Assay, Cat.#500-0116) section 5.2. The protein concentrations were calculated based upon a linear regression curve.
(§6) d) ELISA assay calculations
(§7) Relative ELISA O.D. readings are determined by subtracting the ELISA plate background O.D. value. No drug control O.D. value (lysis buffer only) was subtracted from sample O.D. value. A correction coefficient (CC), based on the sample protein concentration compared to no drug control, was determined to correct the sample O.D. following subtraction of the background O.D. (BCS O.D.). The fold increase over no drug control is calculated and normalized to the total protein concentration of the samples by multiplying against the correction coefficient.
(§8) To determine the fold increase in ELISA O.D., obtain the following O.D. measurements:
(§9) ELISA plate background--lysis buffer only (EPB);
(§10) no drug treated control--cell sample treated with DMSO (NDT);
(§11) drug treated sample--cell sample treated with a compound of formula 1 (DT) Subtract EPB from NDT (NDT-EPB) and DT (DT-EPB). The fold increase of the treated over the control is then (DT-EPB)/(NDT-EPB).
(§12) To determine the total protein concentration of the samples, obtain the total protein concentration in mg/ul calculated using standard linear regression formula (y=mx+b) based on BSA standards. B=ELISA background. Protein concentration (PC)(mg/ml)=(sample absorbance-b)/x.
(§13) Correction coefficient (cc) is (NDT)(PC)/(DT)(PC).
(§14) Determine fold increase of ELISA (FT) normalized to total PC:
(§15) nDT is DT×cc (which is DT O.D. normalized to PC)
(§16) nNDT is NDT×cc (which is NDT O.D. normalized to PC)
(§17) FI normalized to PC is nDT/nNDT.

H1299 cells = experiment: Apoptosis: cell death detection by ELISA, H1299 (lung large cell carcinoma); assay type: cell-based; details: Homo sapiens, NCI-H1299, 10 uM, read-out: Fold induction of apoptosis, internal positive control (cont.)
Description: Lung, large cell carcinoma, human (H1299), obtained from ATCC (CRL-5803), were grown in Gibco's Delbecco Minimum Essential media (DMEM), high glucose, supplemented with sodium pyruvate, 10% FBS and 13 ng/mL gentamicin. Cells were incubated at 37° C., 4.5% CO2 and 95.5% humidified air.
as §1, §2, §3, §4, §5, §6, §7, §8, §9, §10, §11, §12, §13, §14, §15, §16, §17

RKO cells = experiment: Apoptosis: cell death detection by ELISA, RKO (colorectal carcinoma); assay type: cell-based, human; details: Homo sapiens, RKO, 10 uM, read-out: Fold induction of apoptosis, internal positive control (cont.)
Description: Colorectal carcinoma, human (RKO) obtained from Dr. Bernie Vogelstein, were grown in Gibco's Delbecco Minimum Essential media (DMEM), high glucose, supplemented with sodium pyruvate, 10% FBS and 13 ng/mL gentamicin. Cells were incubated at 37° C., 4.5% CO2 and 95.5% humidified air.
as §1, §2, §3, §4, §5, §6, §7, §8, §9, §10, §11, §12, §13, §14, §15, §16, §17

MDA-435 cells = experiment: Apoptosis: cell death detection by ELISA, MDA-435; assay type: cell-based, human; details: for Fold induction of apoptosis, internal positive control (cont.) / fold induction at 10 µM: 10 uM; for fold induction at 10 µM / fold induction at 1 µM / fold induction at 3.3 µM: Homo sapiens
Description: ER- breast carcinoma, human (MDA-435) obtained from Dr. Janet Price, MDA Cancer Center, Houston, Tex., were grown in Gibco's RPMI 1640 media supplemented with sodium pyruvate, 10% FBS and 13 ng/mL gentamicin. Cells were incubated at 37° C., 4.5% CO2 and 95.5% humidified air.
as §1, §2, §3, §4, §5, §6, §7, §8, §9, §10, §11, §12, §13, §14, §15, §16, §17

RAR α, β and γ receptors = details: cited from earlier work
[3] = system: retinoic acid X α, β and γ receptors (RXR); details: cited from earlier work
[4] = system: ER+ and ER- breast carcinoma cells; experiment: Induction of apoptosis in ER+ and ER- carcinoma cells (statements in words); assay type: cell-based, human
Description: as §1, §2, §3
A commercially available apoptosis detection kit, obtained from Boehringer Mannheim (Cat. No. 1544-674), was used as per the directions provided with the kit (Cell Death Detection ELISA). […] The assay measures apoptosis by quantifying the amount of nucleosomal fragmentation from the extracts of cells treated with the test compounds (samples). […] The resulting colorimetric change is measured spectrophotometrically at 405/490nm.
The total protein content of each sample was determined for the purpose of normalizing the ELISA values to amount of sample loaded. […] The protein concentrations were calculated based upon a linear regression curve. […]
as §7, with “No drug control O.D. value (lysis buffer only) was subtracted from sample O.D. value.” left out, “coefficient. […]” for “coefficient.”
To determine the total protein concentration of the samples, obtain the total protein concentration in mg/ul calculated using standard linear regression formula (y=mx+b) based on BSA standards. […] Protein concentration (PC)(mg/ml)=(sample absorbance-b)/x. […]

[5] = ZR-75-1, 24 h, 24 hrs, read-out: Fold induction of apoptosis compared to no drug control
[6] = ZR-75-1, 48 h, 48 hrs, read-out: Fold induction of apoptosis compared to no drug control
[7] = ZR-75-1, 72 h, 72 hrs, read-out: Fold induction of apoptosis compared to no drug control
[8] = MDA435, 24 h, 24 hrs, read-out: Fold induction of apoptosis compared to no drug control
[9] = MDA435, 48 h, 48 hrs, read-out: Fold induction of apoptosis compared to no drug control
[10] = MDA435, 72 h, 72 hrs, read-out: Fold induction of apoptosis compared to no drug control

Structure (SMILES): CC1=C(/C=C/C(C)=C/C=C/C(C)=C/C(=O)Nc2ccc(O)cc2)C(C)(C)CCC1 [4-HPR, all trans 4-hydroxyphenyl retinamide]
- Chemopreventative activity (in words) (tumors; against a number of malignancies): potent chemopreventative agent
- Tumor regression (in words) (tumors; in vivo): capable of tumor regression in vivo
- Effect on tumor formation and tumor growth (in words) (tumors; via apoptosis): inhibit tumor formation and tumor growth via apoptosis
- Induction of apoptosis in retinoid-resistant cells (in words) (tumor cells; cells resistant to retinoids that activate RARs efficiently): effective in inducing apoptosis
- Growth inhibition and apoptosis in other tumor cell types (in words) (tumor cells; including lung carcinoma cell and hematopoetic malignancies): inhibit cell growth and to induce apoptosis
- Growth inhibition and apoptosis in breast carcinoma cells (in words) [1]: capable of inhibiting cell growth and inducing apoptosis; also recorded: appears to induce apoptosis and cause inhibition of cell growth
- Major toxicity seen in the clinic [2]: night vision impairment

Structure (SMILES): O=c1[nH]cc(F)c(=O)[nH]1 [5FU]
- Induction of apoptosis in human carcinoma cells (in words) (human carcinoma cells): induce apoptosis

Structure (SMILES): CC1=C(/C=C/C(C)=C\C=C\C(C)=C\C(=O)Nc2ccc(O)cc2)C(C)(C)CCC1 [9-cis 4-HPR, reference compound]
- Fold induction of apoptosis, internal positive control (cont.) (ZR-75-1 cells; 24 hrs, 10 uM, 1440 min): 2 fold
- fold induction at 10 µM (ZR-75-1 cells; ZR-75-1, 24 h, 24 hrs, 10 uM, read-out: Fold induction of apoptosis, internal positive control (cont.)): 1
- fold induction at 10 µM (H1299 cells; 24 hrs): 1
- fold induction at 10 µM (H1299 cells; 48 hrs): 15
- fold induction at 10 µM (H1299 cells; 72 hrs): 25
- fold induction at 10 µM (RKO cells; 24 hrs): 8
- fold induction at 10 µM (RKO cells; 48 hrs): 9
- fold induction at 10 µM (RKO cells; 72 hrs): 5
- Fold induction of apoptosis, internal positive control (cont.) (MDA-435 cells; 48 hrs, 2880 min): 10 fold
- Fold induction of apoptosis, internal positive control (cont.) (MDA-435 cells; 72 hrs, 4320 min): 12 fold
- fold induction at 10 µM (MDA-435 cells; MDA435, 48 h, 48 hrs, read-out: Fold induction of apoptosis, internal positive control (cont.)): 15
- fold induction at 10 µM (MDA-435 cells; MDA435, 72 h, 72 hrs, read-out: Fold induction of apoptosis, internal positive control (cont.)): 19

Structure (SMILES): CC1=C(/C=C/C(C)=C\C=C\C(C)=C\C(=O)O)C(C)(C)CCC1 [9-cis RA]
- Binding to RAR (in words) (RAR α, β and γ receptors): bind
- Tumor regression (in words) (tumors; 9-cis RA and its analogs): cause tumor regression
- Binding to RXR (in words) [3]: bind

Structure (SMILES): CC1=C(/C=C/C(C)=C/C=C/C(C)=C\C(=O)O)C(C)(C)CCC1 [13-cis RA]
- Ability to induce apoptosis (in words) (tumor cells): very limited
- Differentiation of certain tumor cells (in words) (tumor cells): cause differentiation of certain tumor cells in vitro

Structure (SMILES): C/C(=C/C=C/C(C)=C/C(=O)O)c1cc(C(F)(F)F)cc(C(F)(F)F)c1 [(2E,4E,6Z)-7-[3,5-bis(trifluoromethyl)phenyl]-3,7-dimethyl-2,4,6-heptatrienoic acid]
- fold induction at 1 µM (ZR-75-1 cells; [5]): 1
- fold induction at 3.3 µM (ZR-75-1 cells; [5]): 1
- fold induction at 10 µM (ZR-75-1 cells; ZR-75-1, 24 h, 24 hrs, 10 uM, read-out: Fold induction of apoptosis compared to no drug control): 1
- fold induction at 1 µM (ZR-75-1 cells; [6]): 1
- fold induction at 3.3 µM (ZR-75-1 cells; [6]): 1
- fold induction at 10 µM (ZR-75-1 cells; ZR-75-1, 48 h, 48 hrs, 10 uM, read-out: Fold induction of apoptosis compared to no drug control): 1
- fold induction at 1 µM (ZR-75-1 cells; [7]): 1
- fold induction at 3.3 µM (ZR-75-1 cells; [7]): 1
- fold induction at 10 µM (ZR-75-1 cells; ZR-75-1, 72 h, 72 hrs, 10 uM, read-out: Fold induction of apoptosis compared to no drug control): 2
- Induction of apoptosis (in words) ([4]; 72 h, compared with the corresponding amide): induces considerably lower amounts apoptosis only after 72 h
- Activity against ER- and ER+ carcinoma cells (induction of apoptosis) ([4]; ER- and ER+ carcinoma cells): inactive
- fold induction at 1 µM (MDA-435 cells; [8]): 1
- fold induction at 3.3 µM (MDA-435 cells; [8]): 1
- fold induction at 10 µM (MDA-435 cells; [8]): 1
- fold induction at 1 µM (MDA-435 cells; [9]): 1
- fold induction at 3.3 µM (MDA-435 cells; [9]): 1
- fold induction at 10 µM (MDA-435 cells; [9]): 1
- fold induction at 1 µM (MDA-435 cells; [10]): 1
- fold induction at 3.3 µM (MDA-435 cells; [10]): 1
- fold induction at 10 µM (MDA-435 cells; [10]): 2

Structure (SMILES): COc1cccc2c1C(=O)c1c(O)c3c(c(O)c1C2=O)C[C@@](O)(C(=O)CO)C[C@@H]3O[C@H]1C[C@H](N)[C@H](O)[C@H](C)O1 [Adriamycin]
- Induction of apoptosis in human carcinoma cells (in words) (human carcinoma cells): induce apoptosis

Structure (SMILES): CC1=C(/C=C/C(C)=C/C=C/C(C)=C/C(=O)O)C(C)(C)CCC1 [All-trans RA]
- Ability to induce apoptosis (in words) (tumor cells): very limited
- Differentiation of certain tumor cells (in words) (tumor cells): cause differentiation of certain tumor cells in vitro

Structure (SMILES): CC(=O)O[C@H]1C(=O)[C@@]2(C)[C@H]([C@H](OC(=O)c3ccccc3)[C@]3(O)C[C@H](OC(=O)[C@H](O)[C@@H](NC(=O)c4ccccc4)c4ccccc4)C(C)=C1C3(C)C)[C@]1(OC(C)=O)CO[C@@H]1C[C@@H]2O [Taxol]
- Induction of apoptosis in human carcinoma cells (in words) (human carcinoma cells): induce apoptosis
